Measurements: US7064120B2, “Tricyclic pyridyl carboxamides and derivatives thereof tocolytic oxytocin receptor antagonists” (Wyeth, priority 2001, dated 2006)

Molecular target: T1, human oxytocin receptor (Homo sapiens, UniProt P30559)
T1 construct: host or cells: CHO cells, stably transfected (pcDNA3.1 vector)
T1 sequence (P30559 1-389): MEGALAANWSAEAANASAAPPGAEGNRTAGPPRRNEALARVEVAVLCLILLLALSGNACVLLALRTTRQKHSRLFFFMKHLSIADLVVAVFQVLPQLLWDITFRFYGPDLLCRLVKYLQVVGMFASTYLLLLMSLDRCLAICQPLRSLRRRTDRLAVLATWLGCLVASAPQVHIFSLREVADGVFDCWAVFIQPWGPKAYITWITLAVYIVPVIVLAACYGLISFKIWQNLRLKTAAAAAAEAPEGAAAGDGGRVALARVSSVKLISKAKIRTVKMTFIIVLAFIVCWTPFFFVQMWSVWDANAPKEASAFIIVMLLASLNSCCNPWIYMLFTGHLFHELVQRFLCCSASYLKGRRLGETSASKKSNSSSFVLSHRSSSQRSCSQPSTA
Test: Oxytocin binding in CHO cell membranes expressing human oxytocin receptors ([3H]oxytocin radioligand binding)
Details: 100 nM; for inhibition at 0.1 µM: read-out: OT % inhibition @ 100 nM
Protocol: Oxytocin Binding in Chinese Hamster Ovary Cell Membranes Expressing Human Oxytocin Receptors
Cell Culture medium (e.g. 30 mL for 1:30 split) is immediately added and mixed well to inactivate trypsin. 1 mL of detached cells is added to new culture flasks containing fresh Cell Culture medium (e.g. into 25 mL per T-150 flask), and mixed gently. The cells are incubated at 37° C. in 5% CO2. The medium is changed at 3 to 4 days interval (or as appropriate). […] All steps are done under sterile conditions.
The cells are washed twice gently with Hank's Balanced Salt solution (e.g., use 10 mL per T-150 flask). […] The contents are transferred to centrifuge tubes (50 mL size) kept in ice bath. All subsequent steps are done at 4° C. The tubes are centrifuged at 300×g for 15 min (1380 rpm on SORVAL, Model RT6000D, using rotor for 50 mL tubes). The supernatant is discarded and the cells suspended in homogenizing buffer (10 mM Tris-HCl containing 0.25 M sucrose and 1 mM EDTA, pH 7.4) ensuring that the volume of the buffer is about ten times the volume of the cell pellet. The cells are pooled into a centrifuge tube (50 mL) and homogenized with a Polytron at setting 6 for 10 sec. The homogenate is transferred into a Potter-Elvjehm homogenizer and homogenized with 3 strokes. The homogenate is centrifuged at 1500×g for 10 min at 4° C. (3100 rpm using SORVAL, model RT6000D, using a rotor for 50 mL tubes). The pellet is discarded. The supernatant is centrifuged at 100,000×g for 60 min. at 4° C. (Beckman L8-80M ultracentrifuge; spin at 37,500 rpm with rotor type 70 Ti for 50 mL tubes; 38,000 rpm with rotor type 8OTi for 15 mL tubes; or 35,800 rpm with rotor type 45Ti). The supernantant is discarded and the pellet suspended in 3 to 4 mL of Tris buffer (50 mM TRIS-HCl, pH 7.4). The protein content is estimated by the Bradford or Lowry method. The volume of the membrane suspension is adjusted with the membrane buffer (50 mM Tris-HCl containing 0.1% BSA and 0.1 mM PMSF) to give 3.0 mg/mL (or as appropriate) of protein. The membranes are aliquoted and stored at −70° C.
In wells of a 96-well format microtiter plate, is added 90, 110 or 130 μL (to make up a final volume of 200 μL) of assay buffer containing 50 mM of Tris-HCl (pH 7.4), […], 1 mg % aprotinin, 1 mg % leupeptin, 2 mg % 1,10-phenanthroline, 10 mg % trypsin inhibitor, and 0.1 mM PMSF. The inhibitors are added on the day of the experiment. The components are mixed at room temperature, and then kept in ice bath following adjustment of the pH to 7.4. […] For oxytocin and other peptide ligands, 20 μL of 50% DMSO is added and the assay buffer volume is adjusted accordingly. To each well is added 50 μL of frozen membrane suspension thawed immediately prior to use and diluted in assay buffer to the required concentration (equivalent to 25 to 50 μg of protein/well as needed). 20 μL of 8 nM [^3H]oxytocin in the assay buffer, prepared just before use is added and incubated at room temperature for 60 min. shaking the plate on a mechanical shaker for the first 15 min. The incubation is stopped by rapid filtration of the plate contents followed by washing with ice-cold buffer (50 mM Tris-HCl, pH 7.4) using a cell harvester (Tomtek and Printed filtermat-B filter paper). The filter paper is thoroughly dried (7–12 min. in a microwave oven) and impregnated with MeltiLex B/H melt-on scintillation wax sheets and the radioactivity counted in a betaplate scintillation counter.
Binding data is either reported as percent inhibition at a certain concentration or if an IC50 was calculated, as a nanomolar concentration.

| inhibition at 0.1 µM [%] | SMILES | OT % inhibition @ 100 nM [%] |
| --- | --- | --- |
| 18 | COc1cccc(-c2cc(OC)c(C(=O)N3Cc4ccc(C(=O)NCc5cccnc5)n4Cc4ccccc43)cc2Cl)c1 [Example 43, 10-[(6-Chloro-3,3′-dimethoxy-[1,1′-biphenyl]-4-yl)carbonyl]-N-(3-pyridinylmethyl)-10,11-dihydro-5H-pyrrolo[2,1-c][1,4]benzodiazepine-3-carboxamide] |  |
| 22 | COc1cc(C(=O)N2Cc3ccc(C(=O)NCc4cccnc4)n3Cc3ccccc32)ccc1-c1cccc2ccccc12 [Example 44, 10-[3-Methoxy-4-(naphthalen-1-yl)benzoyl]-N-(3-pyridinylmethyl)-10,11-dihydro-5H-pyrrolo[2,1-c][1,4]benzodiazepine-3-carboxamide] |  |
| 37 | COc1ccccc1-c1ccc(C(=O)N2Cc3ccc(C(=O)NCc4cccnc4)n3Cc3ccccc32)cc1OC [Example 45, 10-[(2,2′-Dimethoxy-[1,1′-biphenyl]-4-yl)carbonyl]-N-(3-pyridinylmethyl)-10,11-dihydro-5H-pyrrolo[2,1-c][1,4]benzodiazepine-3-carboxamide] |  |
| 31 | COc1cccc(-c2ccc(C(=O)N3Cc4ccc(C(=O)NCc5cccnc5)n4Cc4ccccc43)cc2OC)c1 [Example 46, 10-[(2,3′-Dimethoxy-[1,1′-biphenyl]-4-yl)carbonyl]-N-(3-pyridinylmethyl)-10,11-dihydro-5H-pyrrolo[2,1-c][1,4]benzodiazepine-3-carboxamide] |  |
| 1 | O=C(NCc1cccnc1)c1ccc2n1Cc1ccccc1N(C(=O)c1ccc(-c3cccc4ccccc34)cc1Cl)C2 [Example 47, 10-[2-Chloro-4-(naphthalen-1-yl)benzoyl]-N-(3-pyridinylmethyl)-10,11-dihydro-5H-pyrrolo[2,1-c][1,4]benzodiazepine-3-carboxamide] |  |
| 15 | Cc1cc(C(=O)N2Cc3ccc(C(=O)NCc4cccnc4)n3Cc3ccccc32)ccc1-c1ccccc1C(F)(F)F [Example 48, 10-{[2-Methyl-2′-trifluoromethyl-[1,1′-biphenyl]-4-yl]carbonyl}-N-(3-pyridinylmethyl)-10,11-dihydro-5H-pyrrolo[2,1-c][1,4]benzodiazepine-3-carboxamide] |  |
| 58 | COc1ccccc1-c1ccc(C(=O)N2Cc3ccc(C(=O)NCCc4ccccn4)n3Cc3ccccc32)cc1C [Example 49, 10-[(2′-Methoxy-2-methyl-[1,1′-biphenyl]-4-yl)carbonyl]-N-[2-(2-pyridinyl)ethyl]-10,11-dihydro-5H-pyrrolo[2,1-c][1,4]benzodiazepine-3-carboxamide] |  |
| 67 | Cc1ccccc1-c1ccc(C(=O)N2Cc3ccc(C(=O)NCCc4ccccn4)n3Cc3ccccc32)cc1C [Example 50, 10-[(2,2′-Dimethyl-[1,1′-biphenyl]-4-yl)carbonyl]-N-[2-(2-pyridinyl)ethyl]-10,11-dihydro-5H-pyrrolo[2,1-c][1,4]benzodiazepine-3-carboxamide] |  |
| 31 | COc1cccc(-c2ccc(C(=O)N3Cc4ccc(C(=O)NCCc5ccccn5)n4Cc4ccccc43)cc2C)c1 [Example 51, 10-[(3′-Methoxy-2-methyl-[1,1′-biphenyl]-4-yl)carbonyl]-N-[2-(2-pyridinyl)ethyl]-10,11-dihydro-5H-pyrrolo[2,1-c][1,4]benzodiazepine-3-carboxamide] |  |
| 51 | COc1ccccc1-c1ccc(C(=O)N2Cc3ccc(C(=O)NCCc4ccccn4)n3Cc3ccccc32)cc1 [Example 52, 10-[(2′-Methoxy-[1,1′-biphenyl]-4-yl)carbonyl]-N-[2-(2-pyridinyl)ethyl]-10,11-dihydro-5H-pyrrolo[2,1-c][1,4]benzodiazepine-3-carboxamide] |  |
| 6 | Cc1ccccc1-c1ccc(C(=O)N2Cc3ccc(C(=O)NCCc4ccccn4)n3Cc3ccccc32)cc1 [Example 53, 10-[(2′-Methyl-[1,1′-biphenyl]-4-yl)carbonyl]-N-[2-(2-pyridinyl)ethyl]-10,11-dihydro-5H-pyrrolo[2,1-c][1,4]benzodiazepine-3-carboxamide] |  |
| 55 | COc1cc(C(=O)N2Cc3ccc(C(=O)NCCc4ccccn4)n3Cc3ccccc32)ccc1-c1ccccc1C [Example 54, 10-[(2-Methoxy-2′-methyl-[1,1′-biphenyl]-4-yl)carbonyl]-N-[2-(2-pyridinyl)ethyl]-10,11-dihydro-5H-pyrrolo[2,1-c][1,4]benzodiazepine-3-carboxamide] |  |
| 50 | COc1cc(-c2ccccc2C)c(Cl)cc1C(=O)N1Cc2ccc(C(=O)NCCc3ccccn3)n2Cc2ccccc21 [Example 55, 10-[(6-Chloro-3-methoxy-2′-methyl-[1,1′-biphenyl]-4-yl)carbonyl]-N-[2-(2-pyridinyl)ethyl]-10,11-dihydro-5H-pyrrolo[2,1-c][1,4]benzodiazepine-3-carboxamide] |  |
| 31 | COc1cccc(-c2cc(OC)c(C(=O)N3Cc4ccc(C(=O)NCCc5ccccn5)n4Cc4ccccc43)cc2Cl)c1 [Example 56, 10-[(6-Chloro-3,3′-dimethoxy-[1,1′-biphenyl]-4-yl)carbonyl]-N-[2-(2-pyridinyl)ethyl]-10,11-dihydro-5H-pyrrolo[2,1-c][1,4]benzodiazepine-3-carboxamide] |  |
| 32 | COc1cc(C(=O)N2Cc3ccc(C(=O)NCCc4ccccn4)n3Cc3ccccc32)ccc1-c1cccc2ccccc12 [Example 57, 10-[3-Methoxy-4-(naphthalen-1-yl)benzoyl]-N-[2-(2-pyridinyl)ethyl]-10,11-dihydro-5H-pyrrolo[2,1-c][1,4]benzodiazepine-3-carboxamide] |  |
| 37 | COc1ccccc1-c1ccc(C(=O)N2Cc3ccc(C(=O)NCCc4ccccn4)n3Cc3ccccc32)cc1OC [Example 58, 10-[(2,2′-Dimethoxy-[1,1′-biphenyl]-4-yl)carbonyl]-N-[2-(2-pyridinyl)ethyl]-10,11-dihydro-5H-pyrrolo[2,1-c][1,4]benzodiazepine-3-carboxamide] |  |
| 40 | COc1cccc(-c2ccc(C(=O)N3Cc4ccc(C(=O)NCCc5ccccn5)n4Cc4ccccc43)cc2OC)c1 [Example 59, 10-[(2,3′-Dimethoxy-[1,1′-biphenyl]-4-yl)carbonyl]-N-[2-(2-pyridinyl)ethyl]-10,11-dihydro-5H-pyrrolo[2,1-c][1,4]benzodiazepine-3-carboxamide] |  |
| 11 | O=C(NCCc1ccccn1)c1ccc2n1Cc1ccccc1N(C(=O)c1ccc(-c3cccc4ccccc34)cc1Cl)C2 [Example 60, 10-[2-Chloro-4-(naphthalen-1-yl)benzoyl]-N-[2-(2-pyridinyl)ethyl]-10,11-dihydro-5H-pyrrolo[2,1-c][1,4]benzodiazepine-3-carboxamide] |  |
|  | Cc1cc(C(=O)N2Cc3ccc(C(=O)NCCc4ccccn4)n3Cc3ccccc32)ccc1-c1ccccc1C(F)(F)F [Example 61, 10-{[2-Methyl-2′-trifluoromethyl=[1,1′-biphenyl]-4-yl]carbonyl}-N-[2-(2-pyridinyl)ethyl]-10,11-dihydro-5H-pyrrolo[2,1-c][1,4]benzodiazepine-3-carboxamide] | 26 |
